{"source": "patent US20200171065A1", "about": "“METHOD FOR TREATING LIVER DISEASE WITH KINSENOSIDE” (HUAZHONG UNIVERSITY OF SCIENCE AND TECHNOLOGY, priority 2017, published 2020)", "key": {"[1]": {"tested_on": "hepatic stellate cells (HSC-T6) activated by TGF-β1", "experiment": "Hepatic stellate cells (HSC-T6) activated by TGF-β1", "format": "cell-based", "settings": "different concentrations of KD", "text": "HSCs are important cells involved in liver fibrosis. The activation of HSCs is a key element of the development of liver fibrosis, and its apoptosis can reverse liver fibrosis. Different concentrations of KD were used to […] the hepatic stellate cells (HSC-T6) activated by TGF-β1."}, "[2]": {"tested_on": "C57 mice with D-GalN/LPS acute liver failure", "experiment": "Acute liver failure induced by D-GalN + LPS", "format": "in vivo", "description": "60 SPF male C57 mice were purchased and raised in the SPF experimental animal center of Tongji Medical College of Huazhong University of Science and Technology. The mice were provided with standard diet and drinking water. The room temperature was controlled at 23±2° C. After 7 days of adaptive feeding, the mice were administered by intragastric administration. The mice were divided into a control group (administered with distilled water), a model group (administered with distilled water), a high dose group (KD-400 group, 400 mg/kg KD), a medium dose group (KD-200 group, 200 mg/kg KD) and a low dose group (KD-100 group, 100 mg/kg KD), ten mice each group. The mice were weighed the next day, and were continuously administered with above drugs respectively for 10 days. One hour after the last gavage, the mice were injected intraperitoneally (the control group was injected with the same amount of normal saline). The agent for the intraperitoneal injection was galactosamine (D-GalN, 500 mg/kg)+lipopolysaccharide (LPS, Eschericia coli 0111: B4, 5 ug/kg), all purchased from Sigma-Aldrich."}, "[3]": {"tested_on": "C57BL/6J mice with alcoholic fatty liver", "experiment": "Alcoholic fatty liver (5% alcoholic Lieber-DeCarli liquid diet)", "format": "in vivo", "description": "C57BL/6J mice aged 7-8 weeks were raised in the SPF experimental animal center of Tongji Medical College of Huazhong University of Science and Technology. They were provided with standard diet and drinking water. The room temperature was controlled at 23±2° C. After 7 days of adaptive feeding, they were given drugs by intragastric administration. […] The mice were fed with a 5% alcoholic Lieber-DeCarli liquid diet and developed alcoholic fatty liver disease. The mice were administered with alcohol and drugs. Spherically, drinking water were administered to the control group and the model group, and different doses were administered to the dose groups."}, "[4]": {"tested_on": "C57 mice with MCD-induced NASH", "experiment": "Nonalcoholic steatohepatitis induced by methionine choline deficiency (MCD) feed", "format": "in vivo", "description": "150 SPF male mice C57 aged 6-8 weeks were raised in the SPF experimental animal center of Tongji Medical College of Huazhong University of Science and Technology. They were provided with standard diet and drinking water. The room temperature was controlled at 23±2° C. After 7 days of adaptive feeding, they were given drugs by intragastric administration. […] The control groups were administered with normal diet. The model group and each administration group were fed with methionine choline deficiency (MCD) feed. Each group was administrated by gavage. The control group and the model group were given equal amount of thrice steamed water once a day for 8 weeks. The mice were weighed every three days. The hair color, state, food, water and defecation of each group were observed, and the death of each group was recorded. At the end of the 2nd week, 4th week and 6th week, three mice were randomly selected and killed to observe the modeling state. At the end of the 8th week, after the last administration, all mice were provided with no food but water for 12 hours, and all indexes were measured."}, "[5]": {"tested_on": "FVB/N mice with serine/threonine kinase (AKT) overexpressed in the liver (NAFL-NASH-liver fibrosis)", "experimental": "The serine/threonine kinase (AKT) and transposase plasmids were injected into the liver of the mice by a transposition system through hydrodynamics. The serine/threonine kinase was specifically overexpressed in the liver, and the mice except the control group were modeled. One week later, nonalcoholic fatty liver (NAFL) was formed; two weeks later, steatohepatitis (NASH) was formed; and four weeks later, a primary hepatic fibrosis model was established. In the formation of NAFL-NASH-liver fibrosis, the therapeutic effect of KD was observed."}, "[6]": {"settings": "Liver fibrosis stage, KD 30 mg/kg, type B ultrasound"}, "[7]": {"settings": "NAFL stage, KD 30 mg/kg, type B ultrasound"}}, "note": "Entries after “also recorded” stand apart in the source; their conditions may differ. Read-outs that look alike come from different tables or passages of the source.", "data": [{"smiles": "O=C1C[C@@H](O[C@@H]2O[C@H](CO)[C@@H](O)[C@H](O)[C@H]2O)CO1", "note": "[KD]", "values": [{"measurement": "apoptosis of HSC-T6", "setting": "[1]", "result": "promote its apoptosis"}, {"measurement": "cell cycle of HSC-T6", "setting": "[1]", "result": "could block the cell cycle of the HSC-T6 in the G0/G1 phase"}, {"measurement": "proliferation of HSC-T6", "setting": "[1]", "result": "inhibit its proliferation"}, {"measurement": "bleeding and swelling of the liver (appearance)", "setting": "[2]; KD 100-400 mg/kg, 10 days, gavage, silymarin dose not given", "result": "can significantly improve the bleeding and swelling of the liver"}, {"measurement": "inflammatory cytokines TNF-α, IL-12p70, IFN-γ (flow cytometry kit)", "setting": "[2]; high, medium and low dose groups", "result": "had significant anti-inflammatory effect"}, {"measurement": "liver histopathological damage (H&E staining)", "setting": "[2]; high, middle and low KD dose groups", "result": "can reduce liver histopathological damage"}, {"measurement": "apoptotic marker proteins PARP and C-C3 (Western blot)", "setting": "[2]; high-dose group", "result": "could reduce abnormal apoptosis of hepatocytes; also recorded: could down regulate the apoptotic protein"}, {"measurement": "apoptosis of liver cells (Tunel fluorescence staining)", "setting": "[2]; mouse, in vivo", "result": "could inhibit abnormal apoptosis of the liver cells"}, {"measurement": "development of acute liver failure (overall)", "setting": "[2]; mouse, in vivo", "result": "can effectively prevent the development of acute liver failure and reduce liver damage"}, {"measurement": "endoplasmic reticulum stress, expansion and vesiculation", "setting": "[2]; mouse, in vivo", "result": "could down-regulate the process"}, {"measurement": "liver weight/body weight", "setting": "[2]; mouse, in vivo", "result": "could improve the weight gain of liver bleeding"}, {"measurement": "mitochondrial structure of the liver (transmission electron microscopy)", "setting": "[2]; mouse, in vivo", "result": "the mitochondrial structure of the liver of the mice was protected"}, {"measurement": "oxidative stress injuries (MDA, SOD)", "setting": "[2]; mouse, in vivo", "result": "protect the mice from the oxidative stress injuries"}, {"measurement": "fat vacuoles / histopathological damage of liver (H&E staining)", "setting": "[3]; 40 and 20 mg/kg KD", "result": "could reduce histopathological damage of liver and reduce fat vacuoles in liver of mice; also recorded: fat vacuoles were reduced"}, {"measurement": "SOD activity in the liver / oxidative stress injuries", "setting": "[3]; AFL mice", "result": "increased the activity of superoxide dismutase (SOD) in the liver of AFL and ALF mice; also recorded: could reverse the oxidative stress injuries"}, {"measurement": "serum ALT", "setting": "[3]; AFL mice", "result": "decreased the serum alanine aminotransferase (ALT) of AFL and ALF mice"}, {"measurement": "secretion of TNF-α and IL-6", "setting": "[3]; high and medium dose groups", "result": "inhibited the secretion of TNF and IL6 in AFL and ALF; also recorded: reduced the secretion of the inflammatory cytokine TNF-α and IL-6"}, {"measurement": "therapeutic effect on alcoholic fatty liver (overall)", "setting": "[3]; mouse, in vivo", "result": "has a good therapeutic effect on alcoholic fatty liver and alcoholic liver fibrosis"}, {"measurement": "lipid droplet area of sections (Image J), compared with the positive group", "setting": "[4]; 8 w, high-dose KD group", "result": "even better than that of the positive group"}, {"measurement": "liver fat accumulation (oil red O staining)", "setting": "[4]; 40, 20 and 10 mg/kg KD", "result": "Fat accumulation in liver was significantly reduced"}, {"measurement": "liver cell apoptosis / Cleaved Caspase3 (CC3) protein (immunohistochemical staining)", "setting": "[4]; KD group at different doses", "result": "could reduce the liver cell apoptosis to varying degrees, thus reducing the expression of liver CC3 protein"}, {"measurement": "expression of Bcl-2, Bax and Casp3 genes in liver (RT-qPCR)", "setting": "[4]; KD high-dose group", "result": "significantly increased the expression of anti-apoptotic gene Bcl-2, decreased the expression of pro-apoptotic gene Bax, reduced the expression of apoptotic marker gene Casp3"}, {"measurement": "fiber formation (Masson staining, fiber area)", "setting": "[4]; all the KD groups, 8 weeks", "result": "the liver fiber content decreased, and the effect of KD was even better than that of the positive drug group; also recorded: had inhibitory effect on the fiber formation"}, {"measurement": "liver coefficient (liver index)", "setting": "[4]; different doses of KD", "result": "could reduce liver fat and normalize the liver index; also recorded: reduce liver coefficient"}, {"measurement": "ALT and AST levels in the serum", "setting": "[4]; different doses of KD, 8 weeks", "result": "the AST and ALT levels were decreased in each dose group of KD; also recorded: could significantly reduce the ALT and AST levels in the serum"}, {"measurement": "expression of fibrotic marker protein α-SMA (Western blot, immunohistochemistry)", "setting": "[4]; each KD dose group", "result": "could reduce the expression of α-SMA; also recorded: could be reduced in each KD dose group"}, {"measurement": "lipid content", "setting": "[4]; each KD group", "result": "slightly increased"}, {"measurement": "serum HA and LN (ELISA)", "setting": "[4]; each dose group of KD", "result": "could significantly reduce the content of HA and LN; also recorded: could reduce the content of HA and LN in varying degrees"}, {"measurement": "expression of Bcl-xl and BAX proteins in liver (Western Blot)", "setting": "[4]; mouse, in vivo", "result": "the expression of anti-apoptotic protein Bcl-xl was increased, and the proapoptotic protein BAX was inhibited"}, {"measurement": "expression of MMP-13 in the liver (qPCR)", "setting": "[4]; mouse, in vivo", "result": "increase the expression of matrix metalloproteinase-13 (MMP-13)"}, {"measurement": "expression of pro-apoptotic and anti-apoptotic genes and proteins", "setting": "[4]; mouse, in vivo", "result": "could also reduce the expression of pro-apoptotic genes and proteins, and increase the expression of anti-apoptotic genes"}, {"measurement": "expression of α-SMA, Col I, TIMP-1 and TGF-β in the liver (qPCR)", "setting": "[4]; mouse, in vivo", "result": "could effectively inhibit the expression"}, {"measurement": "inflammatory infiltration of liver (HE staining)", "setting": "[4]; mouse, in vivo", "result": "could inhibit the inflammatory infiltration of liver"}, {"measurement": "oxidative stress (SOD, MDA in liver)", "setting": "[4]; mouse, in vivo", "result": "SOD content in the liver increased and oxidative product MDA decreased; also recorded: could reverse the oxidative stress injuries"}, {"measurement": "shear wave velocity / liver hardness (SWE)", "setting": "[4]; mouse, in vivo", "result": "the liver hardness of the KD group decreased; also recorded: could significantly reduce the shear wave velocity"}, {"measurement": "therapeutic effect on MCD-induced NASH (overall, vs silymarin and Fuzheng Huayu capsule)", "setting": "[4]; mouse, in vivo", "result": "dose-dependent, and its effect was similar to that of the drugs silymarin and Fuzheng Huayu capsule, and was better than that of the drugs in some indexes; also recorded: has a good therapeutic effect on MCD-induced NASH"}, {"measurement": "liver histopathological damage (H&E staining)", "setting": "[5]; 30, 20 and 10 mg/kg KD", "result": "could reduce liver histopathological damage"}, {"measurement": "Diameter of hepatic portal vein", "setting": "[5]; [6]", "result": "0.65 ± 0.07", "unit": "mm"}, {"measurement": "Diameter of inferior vena cava", "setting": "[5]; [6]", "result": "1.15 ± 0.07", "unit": "mm"}, {"measurement": "Length of the spleen", "setting": "[5]; [6]", "result": "5.40 ± 0.71", "unit": "mm"}, {"measurement": "Oblique diameter of right lobe of liver", "setting": "[5]; [6]", "result": "8.35 ± 0.78", "unit": "mm"}, {"measurement": "Thickness of the left lobe of liver", "setting": "[5]; [6]", "result": "3.65 ± 0.49", "unit": "mm"}, {"measurement": "Thickness of the spleen", "setting": "[5]; [6]", "result": "1.50 ± 0.14", "unit": "mm"}, {"measurement": "Diameter of hepatic portal vein", "setting": "[5]; [7]", "result": "0.75 ± 0.07", "unit": "mm"}, {"measurement": "Diameter of inferior vena cava", "setting": "[5]; [7]", "result": "1.50 ± 0.14", "unit": "mm"}, {"measurement": "Length of the spleen", "setting": "[5]; [7]", "result": "5.40 ± 0.99", "unit": "mm"}, {"measurement": "Oblique diameter of right lobe of liver", "setting": "[5]; [7]", "result": "7.25 ± 0.21", "unit": "mm"}, {"measurement": "Thickness of the left lobe of liver", "setting": "[5]; [7]", "result": "4.35 ± 1.20", "unit": "mm"}]}]}
